{
  "source": "patent US6342503B1",
  "about": "“1N-alkyl-n-arylpyrimidinamines and derivatives thereof” (DuPont Pharmaceuticals Company, priority 1993, dated 2002)",
  "note": "Structures can show the parent of a compound that is named as a salt.",
  "data": [
    {"target": "T1, CRF receptor (Rattus norvegicus, UniProt P35353)", "T1 construct": "100 μl of membrane suspension as prepared above to give a total reaction volume of 300 μl; from tissue; host or cells: rat cerebral cortex membrane homogenate", "T1 sequence (P35353 24-415)": "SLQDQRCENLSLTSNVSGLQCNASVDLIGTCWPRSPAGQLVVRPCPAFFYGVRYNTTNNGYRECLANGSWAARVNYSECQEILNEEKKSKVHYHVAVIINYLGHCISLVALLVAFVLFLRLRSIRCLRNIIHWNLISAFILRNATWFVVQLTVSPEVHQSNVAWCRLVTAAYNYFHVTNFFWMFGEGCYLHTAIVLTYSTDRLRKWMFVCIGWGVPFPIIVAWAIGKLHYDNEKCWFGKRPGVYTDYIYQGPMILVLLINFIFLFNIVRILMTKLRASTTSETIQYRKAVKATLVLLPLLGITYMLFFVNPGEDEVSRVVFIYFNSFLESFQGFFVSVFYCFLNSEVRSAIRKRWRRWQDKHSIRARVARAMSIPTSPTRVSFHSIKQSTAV", "assay": "In vitro CRF receptor binding assay (competition with [125I] ovine CRF, rat cortex membranes)", "conditions": "competition with [125I] ovine CRF, 2 h at 22° C.; Ki classes; read-out: Inhibition Ki", "protocol": "(§1) In vitro Receptor Binding Assay\n(§2) Tissue Preparation: Male Sprague Dawley rats (180-200 g) were sacrificed by decapitation and the cortex was dissected on ice, frozen whole in liquid nitrogen and stored at −70° C. until use. On the day of assay, frozen tissue was weighed and homogenized in 20 volumes of ice cold buffer containing 50 mM Tris, 10 mM MgCl2, 2 mM EGTA, pH 7.0 at 22° C. using a Polytron (Brinkmann Instruments, Westbury, N.Y.; setting 6) for 20 s. The homogenate was centrifuged at 48,000× g for 10 min at 4° C. The supernatant was discarded, and the pellet was re-homogenized in the same volume of buffer and centrifuged at 48,000× g for 10 min at 4° C. The resulting pellet was resuspended in the above buffer to a final concentration of 20-40 mg original wet weight/mL and used in the assays described below.\n(§3) CRF Receptor Binding: Receptor binding assays were carried out essentially as described by E. B. De Souza, J. Neurosci. […]\n(§4) All assays were carried out at equilibrium for 2 h at 22° C. as described by E. B. De Souza, J. Neurosci. […] The reaction was terminated by centrifugation of the tubes in a Beckman microfuge for 5 min at 12,000× g. Aliquots of the supernatant were collected to determine the “free” radioligand concentration. The remaining supernatant was aspirated and the pellets washed gently with ice-cold PBS plus 0.01% Triton X-100; centrifuged again and monitored for bound radioactivity as described above. […] This program has the distinct advantage of fitting the raw experimental data on an untransformed coordinate system where errors are most likely to be normally distributed and uncorrelated with the independent variable. […] The parameters for the affinity constants (KD) and receptor densities (Bmax) are also provided along with statistics on the general “fit” of the estimated parameters to the raw data.\n(§5) Competition Curve Analysis\n(§6) The resulting pellets were surface washed twice by centrifugation with 1 mL of ice-cold phosphate buffered saline and 0.01% Triton X-100; the supernatants discarded and the pellets monitored for radioactivity at approximately 80% efficiency. The level of non-specific binding was defined in the presence of […] unlabeled rat/humanCRF (r/hCRF). Data from competition curves were analyzed by the program LIGAND. […] Routinely, the data were analyzed using a one- and two-site model comparing the “goodness of fit” between the models in order to accurately determine the Ki. Statistical analyses provided by LIGAND allowed the determination of whether a single-site or multiple-site model should be used.\n(§7) In Table 17; the Ki values were determined using the assay conditions described above.", "units": {"Ki": "nM"}, "values": [
      {"smiles": "CCSc1cc(C(C)=NOC)ccc1N(CC)c1nc(C)cc(C)n1", "note": "[compound 176, N-(2-ethylthio-4-methoxyiminoethylphenyl)-N-ethyl-4,6-dimethyl-2-pyrimidinamine]", "Ki": "< 500"}
    ]},
    {"target": "T1, CRF receptor", "assay": "In vitro CRF receptor binding assay (competition with [125I] ovine CRF, rat cortex membranes)", "conditions": "read-out: Inhibition Ki", "protocol": "as §1, §2, §3, §4, §5, §6, §7", "units": {"Ki": "nM"}, "values": [
      {"smiles": "C=CCN(c1nc(C)cc(C)n1)c1ccccc1Br", "note": "[compound 3]", "Ki": "501 to 2000"},
      {"smiles": "COc1ccc(N(C)c2nc(C)cc(C)n2)c(OC)c1", "note": "[compound 2]", "Ki": "501 to 2000"},
      {"smiles": "CCN(c1nc(C)cc(C(=O)N2CCOCC2)n1)c1ccc(C(C)C)cc1Br", "note": "[compound 58, N-(2-bromo-4-(1-methylethyl)phenyl)-N-ethyl-4-methyl-6-(4-morpholinylcarbonyl)-2-pyrimidinamine]", "Ki": "< 500"},
      {"smiles": "Cc1cc(Cl)nc2c1ccn2-c1ccc(C(C)C)cc1Br", "note": "[Example 263]", "Ki": "< 500"},
      {"smiles": "Cc1cc(C)nc(N(C)c2ccccc2I)n1", "note": "[compound 53]", "Ki": "2000 to 10000"},
      {"smiles": "CCN(c1nc(C)cc(C(C)(C)O)n1)c1ccc(C(C)C)cc1Br", "note": "[compound 295]", "Ki": "< 500"},
      {"smiles": "CCN(c1nc(C)cc(C)n1)c1ccc(C(C)OC)cc1SC", "note": "(stereo not shown) [compound 189, N-(4-(1-methoxyethyl)-2-methylthiophenyl)-N-ethyl-4,6-dimethyl-2-pyrimidinamine]", "Ki": "< 500"},
      {"smiles": "CCc1ccc(N(C)c2nc(C)cc(C)n2)c(Br)c1", "note": "[compound 9, N-(2-bromo-4-ethylphenyl)-N-methyl-4,6-dimethyl-2-pypimidinamine]", "Ki": "< 500"},
      {"smiles": "Cc1cc(C)nc(N(CC#N)c2ccc(C(C)C)cc2Br)n1", "note": "[compound 32]", "Ki": "< 500"},
      {"smiles": "CCN(c1nc(C)cc(OC[C@@H]2CCCN2C)n1)c1ccc(C(C)C)cc1SC", "note": "[compound 177, N-(2-methylthio4-(1-methylethyl)phenyl)-N-ethyl-4(S)-(N-methyl-2′-pyrrolidinomethoxy)-6-methyl-2-pyrimidinamine]", "Ki": "501 to 2000"},
      {"smiles": "CCN(c1nc(C)cc(OCCC[S+](C)[O-])n1)c1ccc(C(C)C)cc1Br", "note": "(stereo not shown) [compound 162]", "Ki": "< 500"},
      {"smiles": "CCN(c1nc(C)cc(N)n1)c1ccc(C(C)C)cc1Br", "note": "[compound 155]", "Ki": "< 500"},
      {"smiles": "CCN(c1nc(C)cc(COCCO)n1)c1ccc(C(C)C)cc1Br", "note": "[compound 225, N-(2-Bromo-4-(1-methylethyl)phenyl)-N-ethyl-4-hydroxyethoxymethyl-6-methyl-2-pyrimidinamine]", "Ki": "< 500"},
      {"smiles": "Cc1cc(Cl)c2ccn(-c3ccc(C(C)C)cc3Br)c2n1", "note": "[Example 259]", "Ki": "< 500"},
      {"smiles": "CCN(c1nc(C)cc(CN(C)C)n1)c1ccc(C(C)C)cc1Br", "note": "[compound 279]", "Ki": "< 500"},
      {"smiles": "CCN(c1nc(C)nc(N(C)C)n1)c1c(Br)cc(OC)cc1OC", "note": "[compound 238]", "Ki": "< 500"},
      {"smiles": "CCN(c1nc(C)nc(N2CCOCC2)n1)c1c(OC)cc(OC)cc1OC", "note": "[compound 239]", "Ki": "< 500"},
      {"smiles": "CCN(c1nc(C)cc(-c2cccs2)n1)c1ccc(C(C)C)cc1Br", "note": "[compound 31, N-(2-Bromo-4-(1-methylethyl)phenyl)-N-ethyl-6-methyl-4-(2-thienyl)-2-pyrimidinamine]", "Ki": "< 500"},
      {"smiles": "CCN(c1nc(C)cc(CN2CCN(c3ncccn3)CC2)n1)c1ccc(C(C)C)cc1Br", "note": "[compound 281]", "Ki": "< 500"},
      {"smiles": "CCN(c1nc(C)cc(C(=O)c2c[nH]c3ccccc23)n1)c1ccc(C(C)C)cc1Br", "note": "[compound 283]", "Ki": "2000 to 10000"},
      {"smiles": "CCN(c1nc(C)cc(C)n1)c1ccc(C(C)C)cc1Br", "note": "[compound 21, N-(2-bromo-4-(1-methylethyl)phenyl)-N-ethyl-4,6dimethyl-2-pyrimidinamine]", "Ki": "< 500"},
      {"smiles": "CCN(c1nc(C)cc(CN(C)Cc2ccco2)n1)c1ccc(C(C)C)cc1Br", "note": "[compound 276]", "Ki": "< 500"},
      {"smiles": "CCN(CC)c1nc(C)nc(N(CC)c2ccc(C(C)C)cc2Br)n1", "note": "[compound 232]", "Ki": "< 500"},
      {"smiles": "CCN(c1nc(C)cc(C(O)c2ccco2)n1)c1ccc(C(C)C)cc1Br", "note": "(stereo not shown) [compound 291]", "Ki": "< 500"},
      {"smiles": "CCN(c1nc(C)cc(OCCCS(C)(=O)=O)n1)c1ccc(C(C)C)cc1Br", "note": "[compound 156]", "Ki": "< 500"},
      {"smiles": "Cc1cc(C)nc(N(CC2CC2)c2ccc(C(C)C)cc2Br)n1", "note": "[compound 33]", "Ki": "< 500"}
    ]},
    {"system": "not given", "assay": "not given", "conditions": "not given", "units": {"melting point": "°C"}, "values": [
      {"smiles": "Cc1cc(C)nc(N(C)c2ccc(C(C)(C)C)cc2Br)n1", "note": "(as salt: hydrochloride) [compound 11]", "melting point": "193 to 195"},
      {"smiles": "C=CCN(c1nc(C)cc(C)n1)c1ccccc1Br", "note": "(as salt: hydrochloride) [compound 3]", "melting point": "127 to 129"},
      {"smiles": "CCCCc1ccc(N(CC)c2nc(CC)cc(CC)n2)c(Br)c1", "note": "(as salt: hydrochloride) [compound 24]", "melting point": "116 to 118"},
      {"smiles": "CCc1ccc(N(CC)c2nc(C)cc(C)n2)c(SC)c1", "note": "(as salt: hydrochloride) [compound 182, N-(4-ethyl-2-methylthiophenyl)-N-ethyl-4,6-dimethyl-2-pyrimidinamine]", "melting point": "140 to 141"},
      {"smiles": "CCN(c1nc(C)cc(C)n1)c1ccc(C(C)C)cc1Br", "note": "(as salt: hydrochloride) [compound 21, N-(2-bromo-4-(1-methylethyl)phenyl)-N-ethyl-4,6dimethyl-2-pyrimidinamine]", "melting point": "151 to 153"},
      {"smiles": "CCN(c1nc(C)cc(C(=O)c2c[nH]c3ccccc23)n1)c1ccc(C(C)C)cc1Br", "note": "(as salt: HCl) [compound 283]", "melting point": "105 to 107"},
      {"smiles": "CCN(c1nc(C)cc(CN2CCN(c3ccccc3OC)CC2)n1)c1ccc(C(C)C)cc1Br", "note": "(as salt: HCl) [compound 275]", "melting point": "102 to 104"},
      {"smiles": "CCSc1cc(C(C)C)ccc1N(CC)c1nc(C)cc(C)n1", "note": "(as salt: hydrochloride) [compound 175, N-(2-ethylthio-4-(1-methylethyl)phenyl)-N-ethyl-4,6dimethyl-2-pyrimidinamine]", "melting point": "128 to 130"},
      {"smiles": "CCN(c1cc(OC)nc(OC)n1)c1ccc(C(C)C)cc1Br", "note": "(as salt: hydrochloride) [compound 130]", "melting point": "104 to 106"},
      {"smiles": "COc1ccc(N(C)c2nc(C)cc(C)n2)c(OC)c1", "note": "(as salt: hydrochloride) [compound 2]", "melting point": "112 to 113"},
      {"smiles": "CCN(c1nc(C)cc(CN2CCN(c3ncccn3)CC2)n1)c1ccc(C(C)C)cc1Br", "note": "(as salt: HCl) [compound 281]", "melting point": "125 to 127"},
      {"smiles": "Cc1cc(C)nc(N(C)c2ccc(C(C)C)cc2Br)n1", "note": "(as salt: hydrochloride) [compound 4, N-(2-bromo-4-(1-methylethyl)phenyl)-N-methyl-4,6-dimethyl-2-pymidinamine]", "melting point": "163 to 164"},
      {"smiles": "CCN(c1nc(C)cc(CN2CCN(c3ccccn3)CC2)n1)c1ccc(C(C)C)cc1Br", "note": "(as salt: HCl) [compound 280]", "melting point": "117 to 119"},
      {"smiles": "CCc1ccc(N(C)c2nc(C)cc(C)n2)c(Br)c1", "note": "(as salt: hydrochloride) [compound 9, N-(2-bromo-4-ethylphenyl)-N-methyl-4,6-dimethyl-2-pypimidinamine]", "melting point": "126 to 127"},
      {"smiles": "Cc1cc(Cl)c2c(C#N)cn(-c3ccc(C(C)C)cc3Br)c2n1", "note": "[Synth. Ex. 74, 1-(2-Bromo-4-isopropylphenyl)-4-chloro-3-cyano-6-methyl-7-azaindole]", "melting point": 123.3},
      {"smiles": "Cc1cc(C)nc(N(C)c2ccc(I)cc2)n1", "note": "(as salt: hydrochloride) [compound 52]", "melting point": "175 to 177"},
      {"smiles": "CCN(c1nc(C)cc(C)n1)c1ccc(C(C)C)cc1[S+](C)[O-]", "note": "(stereo not shown) [compound 169, N-(2-methylsulfinyl-4-(1-methylethyl)phenyl)-N-ethyl-4,6-dimethyl-2-pyrimidinamine]", "melting point": "144 to 146"},
      {"smiles": "Cc1cc(C)nc(N(C)c2ccccc2I)n1", "note": "(as salt: hydrochloride) [compound 53]", "melting point": "164 to 166"},
      {"smiles": "CCN(c1nc(C)cc(OC[C@@H]2CCCN2C)n1)c1ccc(C(C)C)cc1SC", "note": "(as salt: hydrochloride) [compound 177, N-(2-methylthio4-(1-methylethyl)phenyl)-N-ethyl-4(S)-(N-methyl-2′-pyrrolidinomethoxy)-6-methyl-2-pyrimidinamine]", "melting point": "101 to 103"}
    ]}
  ]
}
